Results taken from patent US12570661B2, “Isoform-specific aldehyde dehydrogenase inhibitors” (The Board of Trustees of the Leland Stanford Junior …, priority 2020, dated 2026).
Entries after “also recorded” stand apart in the source; their conditions may differ. Like-named read-outs stand apart in the source and are kept apart here.

Target: T1, ALDH1B1 (Homo sapiens, UniProt P30837)
T1 sequence (P30837 18-517): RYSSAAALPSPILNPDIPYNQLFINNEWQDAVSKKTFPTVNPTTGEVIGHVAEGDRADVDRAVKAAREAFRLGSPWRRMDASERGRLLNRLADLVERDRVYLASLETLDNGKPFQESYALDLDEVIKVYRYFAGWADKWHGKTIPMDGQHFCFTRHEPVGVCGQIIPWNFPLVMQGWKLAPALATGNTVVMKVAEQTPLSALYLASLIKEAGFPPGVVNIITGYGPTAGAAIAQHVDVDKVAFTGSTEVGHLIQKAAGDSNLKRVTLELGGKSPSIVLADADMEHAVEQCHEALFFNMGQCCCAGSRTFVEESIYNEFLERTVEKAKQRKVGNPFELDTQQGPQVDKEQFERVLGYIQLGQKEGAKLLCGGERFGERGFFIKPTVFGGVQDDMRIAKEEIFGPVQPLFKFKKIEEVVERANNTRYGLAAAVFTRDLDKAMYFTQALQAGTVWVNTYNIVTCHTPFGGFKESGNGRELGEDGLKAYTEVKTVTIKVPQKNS
Experiment: ALDH1B1 enzyme kinetics assay (NADH fluorescence, acetaldehyde substrate)
Type: biochemical
Design: made in house; host or cells: E. coli BL21 (optionally co-expressed with GroEL/GroES)
Conditions: for ALDH1B1 inhibition / isoform selectivity (in words): enzyme kinetics assays against ALDH isoforms
Protocol: Cloning, expression, and purification of human recombinant ALDH1A1, ALDH1A3, ALDH2, ALDH3A1, ALDH3A2, ALDH4A1, ALDH5A1 and ALDH7A1 isozymes were conducted as described previously (Chen, C. H. et al. (2015) Proc. Natl. Acad. Sci. U.S.A. 112, 3074-3079). Human ALDH1A2 (Origene, SC109995) and ALDH1B1 (T. Hurley, Indiana University) plasmids were cloned into the pET-15b expression vector (Novagen, 69661-3) containing an N-terminal hexahistidine tag. The mitochondria-targeting sequence of ALDH1B1 was also removed. For protein expression without chaperones, the pET-15b based plasmids were transformed into competent BL21 E. coli cells, which were subsequently grown in 1 L of Luria-Bertani medium containing 100 μg/mL ampicillin at 37° C. Once the OD600 value reached 0.6, the culture was transferred to 16° C. and 0.5 mM isopropyl β-d-1-thiogalactopyranoside was introduced to induce protein expression overnight. The bacteria were then pelleted by centrifugation (3000×g, 4° C. for 30 rain) and harvested. 40 mL BugBuster Master Mix buffer (MilliporeSigrna) containing a protease inhibitor cocktail (cOmplete; Roche) was added, and the cells were lysed by mechanically rolling the suspension at room temperature for 25 min. The lysate was centrifuged (16000×g, 4° C. for 30 min), and the soluble fraction was collected and mixed with 2 mL of Ni-NTA Superflow resin (Qiagen). After the mixture was avowed to rock at 4° C. for 1 h, it was used to create a 10-mL gravity column, which was sequentially treated with 40 mL of wash buffer 1 (20 mM sodium phosphate, 500 mM NaCl, 1 mM DTT, 20 mM imidazole, 5% glycerol, pH 7.4) and 25 mL of wash buffer 2 (20 mM sodium phosphate, 500 mM NaCl, 1 mM DTT, 40 mM imidazole, 5% glycerol, pH 7.4). The hexahistidine-tagged protein was then recovered by treated the column with 5 mL elution buffer (20 mM sodium phosphate, 500 mM NaCl, 1 mM DTT, 400 mM imidazole, 5% glycerol, pH 7.4) and collecting 500-μL fractions. The protein concentration for each fraction was measured (500 μL elution volume was collected as one fraction and was immediately mixed with 500 μL glycerol. The protein concentration for each fraction was measured (600 nm Protein Assay Reagent; Thermo Fisher Scientific), and protein-containing fractions were diluted with an equal volume of glycerol and stored at −80° C. Samples from each step were also collected for SDS-PAGE gel analysis. For ALDH1B1 protein co-expression with chaperones, pET-15b-ALDH1B1 and GroEL/GroES (Addgene, plasmid pBB541) plasmids were co-transformed into competent BL21 E. coli cells, which were subsequently grown in 1 L of Luria-Bertani medium containing 100 μg/mL ampicillin and 50 μg/mL spectinomycin at 37° C. The hexahistidine-tagged ALDH1B1 protein was then expressed and purified as described above.
To evaluate compound activities against ALDH isoforms, reaction mixtures consisting of enzyme assay buffer (100 mM sodium phosphate, 1 mM MgCl2, pH 8.0) and 0.1% DMSO, 1 mM β-mercaptoethanol, 1 mM NAD^+, and the bacterially expressed protein were prepared in white opaque 96-well assay plates (100 μL/well, flat-bottom and non-treated; Corning Costar). 5 μg/mL ALDH enzyme was used for single-dose (1, 10, 50 μM) compound test, and 1 μg/mL ALDH enzyme was used for IC50s determination. Acetaldehyde was then added to each well to achieve an initial substrate concentration of 1 mM, and the resulting enzymatic activity was measured based on NADH fluorescence. The fluorescence signal was read over the course of 10 min on a SpectraMax M2e microplate reader (340-nm excitation and 460-nm emission; Molecular Devices) operated by SoftMax Pro software. Compound activities were normalized to a DMSO control, and dose-response inhibition curves were fitted with four-parameter non-linear regression using Prism software. […]

[1] = 1 μg/mL enzyme, 1 mM acetaldehyde, 1 mM NAD+, read-out: ALDH1B1(in vitro) IC50

SMILES: COc1ccccc1-n1cc(-c2ccc(-c3ccccc3)cc2)[n+]2c1CCCCC2 [Imidazolium 2]
- IC50 [1]: 0.042 µM
- IC50 (FIG. 2, panel B, read-out: ALDH1B1 IC50 (dose-response experiments, text)): 0.057 µM
- activity against other ALDH1 enzymes relative to ALDH1B1 (dose-response, ALDH1A1, ALDH1A3, ALDH1B1): over an order of magnitude weaker activity against other ALDH1 enzymes
- ALDH1B1 inhibition / isoform selectivity (in words): most potent
- mode of ALDH1B1 inhibition with respect to NAD+ (varying NAD+, Lineweaver-Burk): uncompetitive
- mode of ALDH1B1 inhibition with respect to acetaldehyde (varying acetaldehyde, Lineweaver-Burk): non-competitive

SMILES: COc1ccccc1C1=CN(c2ccc(-c3ccccc3)cc2)C2=NCCCCN12 [HPI-273]
- IC50 [1]: 0.047 µM

SMILES: COc1ccccc1C1=CN(c2ccc(-c3ccccc3)cc2)C2=NCCCN12 [STL5-T-0002]
- IC50 [1]: 0.12 µM

SMILES: COc1ccccc1-n1cc(-c2ccccn2)[n+]2c1CCCCC2 [Compound 63]
- ALDH1B1 inhibition / isoform selectivity (in words): inactive against ALDH1B1

SMILES: COc1ccccc1-c1ccc(-c2cn(-c3ccccc3OC)c3[n+]2CCCCC3)cc1.[Br-] [Imidazolium 8]
- IC50 [1]: 0.047 µM
- potency against ALDH1B1 relative to imidazolium 2 (and 8) (dose-response, FIG. 15 panel d): comparable potencies
- ALDH1B1 inhibition / isoform selectivity (in words): ALDH1B1-specific inhibitors; also recorded: enhanced specificity for ALDH1B1 in comparison to imidazolium 2
